# Experiments:
# cell apoptosis = system: cell apoptosis; parameters: method as in PMID 18840408, PMID 18262737; settings: cited from earlier work
# human M2 macrophages = test: lipid mediator profile (SPMs, precursors, free PUFAs) in activated human M2 macrophages; format: cell-based
# Text: (§1) Leukocyte reduction system chamber (LRSC) filters were provided by the Central Institute for Blood Transfusion and Immunological Department of Tirol Kliniken GmbH (Austria) with the informed consent of the volunteers. Only healthy blood donors between 18 and 65 years of age without medication for chronic diseases, fever, or deficiency symptoms and after physical examinations by trained medical personnel were included in the study. Human peripheral blood mononuclear cells (PBMC) were freshly isolated from LRSC filters. After dilution of the cell concentrates in PBS pH 7.4 containing 12.5 mM citrate and 14 mM glucose (130 mL, 37 °C), immune cells were separated via isopycnic density gradient centrifugation (400× g, 20 min, RT) using Histopaque®-1077 (Sigma-Alrich, St. Louis, MO, USA). PBMC were obtained from the interphase after hypotonic lysis of erythrocytes using water (2–5 mL) and two consecutive washing steps with PBS pH 7.4 (50 mL) (270× g, 5 min, RT).
# To differentiate monocytes, which are the predominant cell type in PBMC, towards M0 macrophages, they were first stimulated with 20 ng/mL GM-CSF or M-CSF (HiSS Diagnostics GmbH, Freiburg, Germany) for 6 days in macrophage medium (RPMI 1640 supplemented with 10% FCS, 2 mmol/L L-glutamine, 100 U/mL penicillin and 100 μg/mL streptomycin). These monocyte-derived macrophages were polarized for another 48 h in macrophage medium with 100 ng/mL lipopolysaccharide and 20 ng/mL interferon-γ (Peprotech, Hamburg, Germany) to obtain M1 or with 20 ng/mL interleukin-4 (Peprotech, Hamburg, Germany) to obtain M2 phenotypes.
# Lipid mediator biosynthesis in human M1/M2 macrophages (1.5 mL PBS pH 7.4 plus 1 mM CaCl2) was stimulated with Staphylococcus aureus (LS1)-conditioned medium (1.0%, 3 h) after 15 min preincubation with DMSO (0.1%) or test compounds and stopped by addition of ice-cold MeOH (2.5 mL) containing deuterium-labeled internal standards (200 pg d8-5S-hydroxyeicosatetraenoic acid (HETE), d4-leukotriene (LT)B4, d5-lipoxin (LX)A4, d5-resolvin (Rv)D2, d4-prostaglandin (PG)E2, and 2000 pg d8-arachidonic acid (Cayman Chemical, Ann Arbor, MI, USA)). Samples were incubated at −20 °C for at least 1 h to precipitate proteins and then centrifuged (750× g, 10 min, 4 °C). The supernatant was mixed with acidified water (7 mL, pH 3.5) and loaded onto solid phase cartridges (Sep-Pak® Vac 6cc 500 mg/6 mL C-18 (Waters, Milford, MA, USA)), which were conditioned with MeOH (6 mL) and equilibrated with water (2 mL). Columns were washed with water (6 mL) and hexane (6 mL, 4 °C) before lipid mediators were eluted with methyl formiate (6 mL). The organic phase was evaporated to dryness using a TurboVap LV (Biotage, Uppsala, Sweden) and the remaining lipids were dissolved in MeOH/water (1:1), centrifuged twice (21,100× g, 4 °C, 5 min), and subjected to UPLC-MS/MS analysis. Chromatographic separation of lipid mediators was carried out at 55°C on an Acquity UPLC BEH C-18 column (130Å, 1.7 μm, 2.1 × 100 mm, Waters) using an ExionLC AD UHPLC system (Sciex, Framingham, MA, USA). The gradient of mobile phase A (water/MeOH, 90/10, 0.01% acetic acid) and mobile phase B (MeOH, 0.01% acetic acid) was ramped at a flow rate of 0.35 mL/min from 35.6% to 84.4% B within 12.5 min followed by 5 min of isocratic elution at 97.8% B. Lipid mediators and fatty acids were analyzed in the negative ion mode by scheduled multiple reaction monitoring (detection window: 120 s) using a QTRAP 6500^+ Mass Spectrometer (Sciex), which was equipped with an electrospray ionization source. The curtain gas was set to 40 psi, the collision gas to medium, the ion spray voltage to −4000 V, the heated capillary temperature to 500 °C, and the sheath and auxiliary gas pressure to 40 psi. Transitions selected for quantitation and the corresponding declustering potential (DP), entrance potential (EP), collision energy (CE) and collision cell exit potential (CXP) are listed in Table 4. […]
# [1] = system: soluble epoxide hydrolase (sEH); test: cellular sEH activity (DHETs/EETs ratio) in human M2 macrophages; format: cell-based
# Text: (§2) Leukocyte reduction system chamber (LRSC) filters were provided by the Central Institute for Blood Transfusion and Immunological Department of Tirol Kliniken GmbH (Austria) with the informed consent of the volunteers. Only healthy blood donors between 18 and 65 years of age without medication for chronic diseases, fever, or deficiency symptoms and after physical examinations by trained medical personnel were included in the study. Human peripheral blood mononuclear cells (PBMC) were freshly isolated from LRSC filters. […]
# (§3) Lipid mediator biosynthesis in human M1/M2 macrophages (1.5 mL PBS pH 7.4 plus 1 mM CaCl2) was stimulated with Staphylococcus aureus (LS1)-conditioned medium (1.0%, 3 h) after 15 min preincubation with DMSO (0.1%) or test compounds and stopped by addition of ice-cold MeOH (2.5 mL) containing deuterium-labeled internal standards (200 pg d8-5S-hydroxyeicosatetraenoic acid (HETE), d4-leukotriene (LT)B4, d5-lipoxin (LX)A4, d5-resolvin (Rv)D2, d4-prostaglandin (PG)E2, and 2000 pg d8-arachidonic acid (Cayman Chemical, Ann Arbor, MI, USA)). […] Transitions selected for quantitation and the corresponding declustering potential (DP), entrance potential (EP), collision energy (CE) and collision cell exit potential (CXP) are listed in Table 4. […]
# COX product formation = COX product formation in activated human M1 macrophages (metabololipidomics); format: cell-based
# Text: as §1, with “RT). […]” for “RT).”
# (§4) Lipid mediator biosynthesis in human M1/M2 macrophages (1.5 mL PBS pH 7.4 plus 1 mM CaCl2) was stimulated with Staphylococcus aureus (LS1)-conditioned medium (1.0%, 3 h) after 15 min preincubation with DMSO (0.1%) or test compounds and stopped by addition of ice-cold MeOH (2.5 mL) containing deuterium-labeled internal standards (200 pg d8-5S-hydroxyeicosatetraenoic acid (HETE), d4-leukotriene (LT)B4, d5-lipoxin (LX)A4, d5-resolvin (Rv)D2, d4-prostaglandin (PG)E2, and 2000 pg d8-arachidonic acid (Cayman Chemical, Ann Arbor, MI, USA)). […] The gradient of mobile phase A (water/MeOH, 90/10, 0.01% acetic acid) and mobile phase B (MeOH, 0.01% acetic acid) was ramped at a flow rate of 0.35 mL/min from 35.6% to 84.4% B within 12.5 min followed by 5 min of isocratic elution at 97.8% B. Lipid mediators and fatty acids were analyzed in the negative ion mode by scheduled multiple reaction monitoring (detection window: 120 s) using a QTRAP 6500^+ Mass Spectrometer (Sciex), which was equipped with an electrospray ionization source. […]
# 12/15-LOX product levels = test: 12- and 15-LOX product levels in activated macrophages; format: cell-based, human
# Text: as §2, §3
# human recombinant 5-LOX = target: T1, human recombinant 5-LOX (Homo sapiens, UniProt P09917); test: cell-free 5-lipoxygenase activity assay; format: biochemical; settings: arachidonic acid 20 µM, 10 min at 37 °C, read-out: IC50 for inhibition of human recombinant 5-LOX
# T1 construct: purchased Cayman Chemical
# T1 sequence (P09917 1-674): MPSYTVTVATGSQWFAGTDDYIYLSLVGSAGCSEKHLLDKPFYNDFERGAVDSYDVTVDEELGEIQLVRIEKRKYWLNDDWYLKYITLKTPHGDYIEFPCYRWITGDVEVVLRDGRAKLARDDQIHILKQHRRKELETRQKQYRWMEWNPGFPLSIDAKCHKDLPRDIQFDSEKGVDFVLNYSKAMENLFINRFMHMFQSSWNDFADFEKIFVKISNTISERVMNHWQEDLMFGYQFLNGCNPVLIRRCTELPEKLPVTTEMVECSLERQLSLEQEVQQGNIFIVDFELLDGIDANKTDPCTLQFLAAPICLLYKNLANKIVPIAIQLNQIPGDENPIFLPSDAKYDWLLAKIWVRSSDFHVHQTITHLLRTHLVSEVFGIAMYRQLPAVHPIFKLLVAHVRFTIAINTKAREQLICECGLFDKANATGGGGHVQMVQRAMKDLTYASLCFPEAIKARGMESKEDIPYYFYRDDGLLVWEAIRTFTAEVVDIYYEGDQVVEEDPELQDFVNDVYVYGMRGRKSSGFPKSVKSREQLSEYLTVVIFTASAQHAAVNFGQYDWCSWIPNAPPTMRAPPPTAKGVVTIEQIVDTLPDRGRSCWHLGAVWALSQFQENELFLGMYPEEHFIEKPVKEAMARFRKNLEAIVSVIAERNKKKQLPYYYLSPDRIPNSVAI
# Procedure: Human recombinant 5-LOX (Cayman Chemical, 10 U) was pre-treated with vehicle (DMSO, 0.1%) or test compounds for 10 min in 1 mL PBS pH 7.4, 1 mM EDTA and 1 mM ATP on ice before CaCl2 (2 mM) and arachidonic acid (20 µM) were added. After 10 min at 37 °C, the reaction was stopped by the addition of ice-cold MeOH (1 mL) and PGB1 (2 ng) as internal standard. Clean-Up C-18 Endcapped SPE cartridges (100 mg, 10 mL, UCT, Bristol, PA, USA) were conditioned with MeOH (1 mL, twice) and equilibrated with water (1 mL). After acidification (530 µL PBS plus 60 mM HCl) and centrifugation (750× g, 10 min, 4 °C), supernatants containing lipid mediators were loaded onto the columns, which were first washed with water (1 mL) and then MeOH/water (25:75, 1 mL). After elution of lipid mediators with MeOH (300 µL), water (120 µL) was added and samples were centrifuged (21,100× g, 10 min, 4 °C) and subjected to LC-PDA analysis. 5-LOX products, including all trans-isomers of LTB4 and 5-HETE, were separated at 40 °C and a flow rate of 0.45 mL/min on a Kinetex C-18 LC column (100Å, 1.3 μm, 2.1 × 50 mm, Phenomenex, Torrance, CA) using a Nexera X2 UHPLC system (Shimadzu, Kyoto, Japan). The step gradient of mobile phase A (water/MeOH, 50/50, 0.05% trifluoroacetic acid) and mobile phase B (MeOH, 0.05% trifluoroacetic acid) was kept at 14% B for 2 min, followed by 46% B for 2 min and 90% B for another 2 min. LTB4 isomers and 5-HETE were detected with a photodiode array detector (SPD-M20A, Shimadzu, Kioto, Japan) at 280 nm and 235 nm, respectively. Lipid quantitieswere calculated by internal calibration using PGB1 as reference standard.
# Data are expressed as mean ± s.e.m. and single data from n = 4–8 independent experiments. […] Data were analyzed using Microsoft Excel (Office 365, Version: 2204, Albuquerque, New Mexico), and statistics were performed using GraphPad Prism (GraphPad Software version 9.3.1, Dotmatics, Boston, UK). IC50 values were calculated by non-linear regression (GraphPad Prism 9.3.1).
# 5-LOX product formation = 5-LOX product formation in activated human M1 macrophages (metabololipidomics); settings: Macrophage, cell-based, Staphylococcus aureus-conditioned medium 1.0%, 3 h, 15 min preincubation, read-out: IC50 for inhibition of 5-LOX product formation
# Text: as §1, with “RT). […]” for “RT).”
# as §4
# [2] = system: 5-lipoxygenase (5-LOX) pathway; parameters: method as in PMID 28165233; settings: cited from earlier work
# [3] = system: microsomal prostaglandin E2 synthase (mPGES)-1; parameters: method as in doi:10.1016/j.phanu.2014.05.001; settings: cited from earlier work
compound,measurement,setting,value
"COC1=CC(=O)c2ccc3cc(OC)cc(O)c3c2C1=O [Compound 4, denbinobin]",cell apoptosis induction,cell apoptosis,cell apoptosis-inducing properties
"COC1=CC(=O)C2=C(C1=O)c1c(cc(OC)cc1OC)CC2 [Compound 5, 9,10-dihydro-3,5,7-trimethoxy-1,4-phenanthrenequinone]",D-series Rv (RvDs) levels,human M2 macrophages,but not RvDs levels
same,maresin 2 (MaR2) levels,human M2 macrophages,elevated
same,protectins (PDs) levels,human M2 macrophages,elevated
same,release of polyunsaturated fatty acids (PUFAs),human M2 macrophages,decreased
same,ratio of DHETs/EETs (indicator of sEH activity),[1],significantly elevated
same,IC50,"COX product formation; Macrophage, cell-based, Staphylococcus aureus-conditioned medium, read-out: IC50 for inhibition of COX product (prostanoid) formation",2 µM
same,12/15-LOX product levels,12/15-LOX product levels,slightly but significantly lowered
same,IC50,human recombinant 5-LOX,20.1 µM
same,IC50,5-LOX product formation,1 µM
"COc1cc(O)cc(CCc2ccc(OC)c(O)c2CC=C(C)C)c1 [Compound 6, canniprene]",production of inflammatory eicosanoids via the 5-LOX pathway,[2],potently inhibits
"COc1cc(-c2cc(=O)c3c(O)c(C/C=C(\C)CCC=C(C)C)c(O)cc3o2)ccc1O [Compound 7a, cannflavin A]",inhibition of mPGES-1,[3],potent inhibitors
"COc1cc(-c2cc(=O)c3c(O)c(CC=C(C)C)c(O)cc3o2)ccc1O [Compound 8, cannflavin B]",inhibition of mPGES-1,[3],potent inhibitors
"COc1cc(O)c2c(c1)CCc1cc(OC)c(OC)c(O)c1-2 [Compound 9, 9,10-dihydro-2,3,7-trimethoxy-4,5-phenanthrenediol]",D-series Rv (RvDs) levels,human M2 macrophages,raised
same,"formation of SPM precursors, including 17-HDHA, 15-HEPE and 15-HETE",human M2 macrophages,enhanced formation
same,maresin 2 (MaR2) levels,human M2 macrophages,raised
same,production of specialized pro-resolving mediators (SPMs),human M2 macrophages,stimulated
same,protectins (PDs) levels,human M2 macrophages,raised
same,effect on COX product formation,COX product formation,substantially elevated
same,IC50,human recombinant 5-LOX,6.9 µM
same,IC50,5-LOX product formation,3.8 µM
"COc1cc2c(c(OC)c1O)-c1c(ccc(OC)c1O)CC2 [Compound 10, 9,10-dihydro-2,4,6-trimethoxy-3,5-phenanthrenediol]",maresin 2 (MaR2) levels,human M2 macrophages,selectively increased
same,production of specialized pro-resolving mediators (SPMs),human M2 macrophages,stimulated
same,ratio of DHETs/EETs (indicator of sEH activity),[1],only increased by trend
same,effect on COX product formation,COX product formation,substantially elevated
same,IC50,human recombinant 5-LOX,4.6 µM
same,IC50,5-LOX product formation,8.5 µM
